# Reference: PubChem BioAssay (NCI)
#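 Step 1: Grow cells in 96-well plates. Step 2: Expose to compound for 48 hours at 5 concentrations. Step 3: Interpolate endpoints linearly; if unreached, use highest concentration. GI50 is the concentration that inhibits growth by half. Definition used: TGI = concentration required for complete inhibition of growth.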
# What was measured:
# Experiment in all cases: DTP human tumour cell line panel, 48 h
# A549 NSCLC = tested on: A549 NSCLC
# COLO 205 colon = tested on: COLO 205 colon
# HL-60(TB) leukemia = tested on: HL-60(TB) leukemia
# OVCAR-5 ovarian = tested on: OVCAR-5 ovarian
# SNB-75 CNS = tested on: SNB-75 CNS
# SW-620 colon = tested on: SW-620 colon
# UO-31 renal = tested on: UO-31 renal
# HCC-2998 colon = tested on: HCC-2998 colon
Structure (SMILES),TGI (A549 NSCLC) [µM],TGI (COLO 205 colon) [µM],TGI (HL-60(TB) leukemia) [µM],TGI (OVCAR-5 ovarian) [µM],TGI (SNB-75 CNS) [µM],TGI (SW-620 colon) [µM],TGI (UO-31 renal) [µM],TGI (HCC-2998 colon) [µM],GI50 (A549 NSCLC) [µM],GI50 (COLO 205 colon) [nM],GI50 (HCC-2998 colon) [nM],GI50 (OVCAR-5 ovarian) [µM],GI50 (SNB-75 CNS) [nM],GI50 (SW-620 colon) [nM],GI50 (UO-31 renal) [nM]
CN(C)CC/C(=N\Nc1ccc(Cl)c(Cl)c1)c1ccccc1,3.8,3.15,5.8,6.34,7.08,3.68,3.25,–,–,–,–,–,–,–,–
COc1cc(/C=C/c2ccc(OC(C)=O)cc2)cc(OC)c1OC,85.2,67.2,52.6,68.6,–,> 100,56.1,–,–,–,–,–,–,–,–
COc1ccc2nc(NC(=O)C(=O)C(C(=O)c3ccccc3-c3ccccc3)C3OC(=O)c4ccccc43)sc2c1 (stereo not given),76.4,39.6,72.5,35.9,35.1,50.1,47.4,29.1,–,–,–,–,–,–,–
NC(=S)NNC(=O)CCC(=O)Nc1ccc(Cl)cc1Cl,> 100,> 100,> 100,> 100,> 100,> 100,> 100,> 100,–,–,–,–,–,–,–
Cc1ccccc1-c1c(N)nc(N)nc1C(=O)Nc1nccs1,> 100,> 100,> 100,> 100,> 100,> 100,> 100,> 100,–,–,–,–,–,–,–
CCC[CH2][Ge]([CH2]CCC)([CH2]CCC)[O]C(=O)C(O)c1ccccc1 (stereo not given),26,12,4.3,21.7,> 100,20.4,15.8,14.4,2,2330,2690,6.27,4510,4090,885
CCc1ccc(Nc2cc(=O)[nH]c(=S)n2C)cc1,> 100,> 100,> 100,> 100,> 100,> 100,> 100,–,–,–,–,–,–,–,–
CCOC(=O)N1N=NC2C3OC(C[C@@]3(C#N)OC(C)=O)[C@H]21 (stereo not given in full),> 100,> 100,> 100,> 100,> 100,> 100,> 100,> 100,–,–,–,–,–,–,–
CCCCCCCCCC1C(C)c2c([nH]c3ccccc23)C2C(=O)N(c3ccccc3)C(=O)C21 (stereo not given),> 100,–,13.4,31.5,26.9,> 100,26.8,25.7,–,–,–,–,–,–,–
CCC[CH2][Sn]([CH2]CCC)([O]C(=O)c1cc(OC)c(OC)cc1OC)[O]C(=O)c1cc(OC)c(OC)cc1OC,18.3,2.6,–,4.33,1.53,2.83,2.92,–,5.14,1250,–,2.27,402,1130,1570
Cc1ccc(NC(=O)CC/C(CC(=O)c2ccc(F)cc2)=N\NC(=O)C(=O)NN)cc1C,> 100,> 100,> 100,> 100,> 100,> 100,> 100,> 100,–,–,–,–,–,–,–
COc1cc(C(=O)C/C(CCC(=O)Nc2ccc(Cl)cc2Cl)=N/NC(=O)C(N)=O)ccc1O,> 100,> 100,> 100,> 100,43.7,> 100,> 100,> 100,–,–,–,–,–,–,–
Cc1nc(-c2nc(C)c(C(=O)NN(C)C)s2)sc1C(=O)NN(C)C,–,53.9,> 100,> 100,> 100,–,> 100,> 100,–,–,–,–,–,–,–
CC1=C(C(=O)CC(=O)C(=O)Nc2ccccc2)Sc2ccccc2N1,> 100,> 100,> 100,> 100,–,> 100,> 100,–,–,–,–,–,–,–,–
Nc1ccc2c(c1)CC1c3ccccc3C(C2)c2ccccc21,> 100,> 100,> 100,> 100,> 100,> 100,> 100,> 100,–,–,–,–,–,–,–
CCOC(=O)C(Cc1ccccc1)NC(=O)OC(C)(C)C (stereo not given),> 100,> 100,> 100,> 100,> 100,> 100,> 100,> 100,–,–,–,–,–,–,–
O=C(/C=C/c1ccccc1O)c1cccnc1,> 100,–,> 100,> 100,> 100,> 100,> 100,> 100,–,–,–,–,–,–,–
Cc1ccc(S(=O)(=O)SCc2ccccc2CSS(=O)(=O)c2ccc(C)cc2)cc1,> 100,31.1,34.7,–,> 100,31.8,> 100,> 100,–,–,–,–,–,–,–
CCC1(C(=O)OC)CCc2c(OC)ccc(OC)c2C1=O (stereo not given),> 100,> 100,> 100,> 100,–,> 100,> 100,> 100,–,–,–,–,–,–,–
Cc1c(C(=O)/C=C/c2ccccc2Cl)[n+](=O)c2ccccc2n1[O-],33.3,28.8,62.8,35.7,30.5,24,33.2,–,–,–,–,–,–,–,–
CC(=O)Nc1ccccc1-c1cnc2ccccc2n1,> 100,> 100,> 100,> 100,> 100,> 100,–,> 100,–,–,–,–,–,–,–
